The assay relates to MRP1 cells, doxorubicin viability shift, 10 uM compound. Briefly: viability protection against doxorubicin, MRP-1 line – cell-based, doxorubicin EC50 shift, dose response (AID 844). The following applies: for EC50: measured here: doxorubicin EC50 with compound.

Each structure is given as a SMILES string. The source made the active and inactive calls. No rule for the calls is given here.

Consider `Cc1cccc(-n2ncc3c(N4CC(C)CC(C)C4)ncnc32)c1` (stereo not given), for which the fold increase in Dox EC50 is 0.6 (inactive) and the EC50 was determined as 3.25 µM.
Regarding `N#CC(C#N)=NNc1ccc(S(=O)(=O)N2CCCC2)cc1`, the fold increase in Dox EC50 is 1.09 (inactive) and the EC50 is 5.88 µM.
For the compound `O=C(/C(=C/O)N=Nc1ccccc1)c1ccncc1`, the fold increase in Dox EC50 is 1.4 (inactive) and the EC50 came out at 7.54 µM.
For `Cc1cccc(-n2c(N)cc(=O)nc2SCC(=O)Nc2nnc(C)s2)c1` the same measures were 1.54 and 8.29 µM.
With `COc1cccc(Nc2ncc(C(=O)O)c3ccccc23)c1`, the fold increase in Dox EC50 is 0.56 (inactive) and the EC50 stood at 3.01 µM.
Taken in the same sequence, the figures for `COC(=O)CC1SC(=O)NC1=O` (stereo not given) were 0.9 (inactive) and 4.84 µM.
As for `O=C(NCCc1ccc(Cl)cc1)c1cnc2n(c1=O)CCS2`, the fold increase in Dox EC50 was 0.66 (inactive) and the EC50 amounted to 3.55 µM.
`Cc1ccc(CC2S/C(=C(/C#N)C(=O)N3CCOCC3)N(c3ccccc3)C2=O)cc1` (stereo not given): the fold increase in Dox EC50 is 1.18 (inactive) and the 50% effective concentration (EC50) came out at 6.38 µM.
As to `Cc1ccc(N2C(=O)NC(=O)/C(=C\c3ccsc3)C2=O)cc1C`, the fold increase in Dox EC50 was 0.8 (inactive) and the EC50 worked out at 4.33 µM.
In the case of `CS(=O)(=O)Nc1nnc(Cc2ccccc2)s1`, the fold increase in Dox EC50 was 0.75 (inactive) and the EC50 came to 4.04 µM.
As for `CCOC(=O)c1c(-c2cccs2)csc1NC(=O)CSc1ncn[nH]1`, the fold increase in Dox EC50 is 0.2 (inactive) and the half-maximal effective concentration (EC50) stood at 1.09 µM.
`CCC(Sc1nc(-c2ccccc2)c(C#N)c(=O)[nH]1)C(=O)Nc1nnc(C)s1` (stereo not given): the fold increase in Dox EC50 was 1.82 and the EC50 is 9.85 µM.
With `c1ccc2c(c1)Nc1nccnc1S2`, the fold increase in Dox EC50 was 0.12 (inactive) and the concentration for a half-maximal effect (EC50) stood at 0.637 µM.
For the compound `CCOC(=O)c1csc(NC(=O)c2ccccc2)n1`, the fold increase in Dox EC50 is 0.86 (inactive) and the half-maximal effective concentration (EC50) was 4.65 µM.
Taken in the same sequence, the figures for `O=C(Nc1ccc(N2CCCCC2)c(Cl)c1)c1ncn[nH]1` were 0.78 (inactive) and 4.22 µM.
Turning to `CCCC(=O)NC(=S)Nc1ccc(C(C)=O)cc1`, the fold increase in Dox EC50 is 0.46 (inactive) and the concentration for a half-maximal effect (EC50) stood at 2.48 µM.
Taken in the same sequence, the figures for `COc1ccc(NC(=O)c2oc3ccccc3c2NC(=O)c2ccc3c(c2)OCO3)cc1` were 0.44 (inactive) and 2.4 µM.
`Cc1nc2cc(-c3ccc(Cl)cc3)nn2c(C)c1CCC(=O)NC(C)c1ccc2c(c1)OCCO2` (stereo not given): the fold increase in Dox EC50 is 0.52 (inactive) and the EC50 stood at 2.83 µM.
Turning to `CC(C)(CNC(=O)/C=C/c1ccc(F)cc1)CNC(=O)/C=C/c1ccc(F)cc1`, the fold increase in Dox EC50 is 0.38 (inactive) and the EC50 turned out to be 2.07 µM.
For `Oc1c(C=C2N=c3ccccc3=N2)sc(=S)n1-c1ccc(F)cc1`, the fold increase in Dox EC50 was 0.63 (inactive) and the EC50 stood at 3.39 µM.
On to `CN=C1S/C(=C\c2cc(C)n(-c3ccccc3F)c2C)C(=O)N1C`, for which the fold increase in Dox EC50 is 0.65 (inactive) and the 50% effective concentration (EC50) amounted to 3.49 µM.
As to `CC1CCC(NC(=O)Cn2c3c(c(-c4ccccc4Cl)cc2=O)CCC3)CC1` (stereo not given), the fold increase in Dox EC50 is 1.13 (inactive) and the EC50 is 6.11 µM.
Regarding `COc1ccccc1NC(=O)CSC1=NCCN1`, the fold increase in Dox EC50 was 0.68 (inactive) and the concentration for a half-maximal effect (EC50) came to 3.7 µM.
Regarding `COc1cccc(C2C(C(=O)Nc3nc4ccccc4s3)=C(C)NC3=C2C(=O)CC(C)(C)C3)c1OC` (stereo not given), the fold increase in Dox EC50 is 0.3 (inactive) and the EC50 is 1.6 µM.
As to `O=C1C=C(O)CC(c2ccc(Cl)cc2)C1` (stereo not given), the fold increase in Dox EC50 is 1.04 (inactive) and the EC50 was determined as 5.6 µM.
On to `C=CCNC(=S)NNC(=O)COc1ccc(Br)cc1`, for which the fold increase in Dox EC50 is 0.71 (inactive) and the 50% effective concentration (EC50) is 3.82 µM.
Taken in the same sequence, the figures for `CN(C)c1ccc(NC(=O)CN2C(=O)CN=C(c3ccccc3)c3cc(Cl)ccc32)cc1` were 1.29 (inactive) and 6.99 µM.
Taken in the same sequence, the figures for `O=C(CCc1ccccc1)Nc1nnc(-c2ccc3c(c2)CCCC3)o1` were 0.25 (inactive) and 1.36 µM.
For `O=C(CSc1ccccc1)Nc1nnc(COc2ccc(Cl)cc2)s1`, the fold increase in Dox EC50 is 0.43 (inactive) and the EC50 came out at 2.34 µM.
Taken in the same sequence, the figures for `COc1ccc(/C=N/Nc2nc(-c3ccc(Cl)cc3)cc(C(F)(F)F)n2)cc1OC` were 0.35 (inactive) and 1.9 µM.
Taken in the same sequence, the figures for `Cc1cccc(NC(=O)CSc2nc(-c3ccccc3)c(C#N)c(=O)[nH]2)c1C` were 1.24 (inactive) and 6.71 µM.
`COc1ccc(CCNC(=O)CSCc2ccc(Cl)cc2)cc1OC`: the fold increase in Dox EC50 was 0.67 (inactive) and the EC50 was determined as 3.59 µM.
With `O=C(O)c1cccc(N2C(=O)C3CC=C(Cl)CC3C2=O)c1` (stereo not given), the fold increase in Dox EC50 is 1.48 (inactive) and the EC50 stood at 7.97 µM.
`CCCC(=O)c1ccc(N2CCOCC2)c(F)c1`: the fold increase in Dox EC50 was 1.07 (inactive) and the concentration for a half-maximal effect (EC50) was 5.75 µM.
On to `COC(=O)c1cnn(-c2cc(Oc3ccccc3)ncn2)c1N`, for which the fold increase in Dox EC50 is 0.76 (inactive) and the concentration for a half-maximal effect (EC50) worked out at 4.11 µM.
Regarding `CCOC(=O)c1sc(-c2ccccc2)cc1NC(=O)Nc1ccccc1`, the fold increase in Dox EC50 is 0.4 (inactive) and the EC50 came to 2.16 µM.
In the case of `S=C(c1ccc(-c2ccccc2Cl)o1)N1CCCCC1`, the fold increase in Dox EC50 is 0.85 (inactive) and the EC50 worked out at 4.59 µM.
For `CCc1nccn1C(=O)c1cnn2c(C(F)F)cc(-c3ccc(C)cc3)nc12` the same measures were 0.1 (inactive) and 0.523 µM.
For the compound `COc1ccc(N2C(=O)CC(N3CCC(n4c(=O)[nH]c5ccccc54)CC3)C2=O)cc1` (stereo not given), the fold increase in Dox EC50 was 1.04 (inactive) and the EC50 stood at 5.64 µM.
With `N#Cc1nc(COc2ccc(Br)cc2)oc1N1CCCCCC1`, the fold increase in Dox EC50 is 0.78 (inactive) and the concentration for a half-maximal effect (EC50) stood at 4.21 µM.
For `COCC(=O)Nc1nnc(COc2ccc(Cl)cc2)s1` the same measures were 1.44 (inactive) and 7.75 µM.
For `CCOc1ccccc1C(=O)OCC(=O)Nc1ccc(OC(F)F)cc1` the same measures were 0.93 (inactive) and 5.04 µM.
For `CCOc1ccc(NC(=O)N2CCC(n3c(=O)[nH]c4ccccc43)CC2)cc1` the same measures were 0.9 (inactive) and 4.85 µM.
As for `CC(=O)N1CCN=C1SCc1ccc(C)cc1`, the fold increase in Dox EC50 is 0.87 (inactive) and the 50% effective concentration (EC50) stood at 4.67 µM.
Regarding `Cc1ccc(C(c2nnnn2CS(=O)(=O)c2ccc(C)cc2)N2CCN(c3ncccn3)CC2)cc1` (stereo not given), the fold increase in Dox EC50 is 0.48 (inactive) and the EC50 was 2.58 µM.
With `CCOc1ccc(-c2nc(C#N)c(N3CCCCCC3)o2)cc1`, the fold increase in Dox EC50 was 0.56 (inactive) and the EC50 was determined as 3.04 µM.
Take `C=CCc1c(C)nc(-c2ccccc2)nc1N/N=C(\C)c1ccc(N)cc1`: the fold increase in Dox EC50 is 1.3 (inactive) and the concentration giving a half-maximal response (EC50) was found to be 6.99 µM.
On to `Cc1noc(/C=C/N(C)C)c1S(=O)(=O)N1CCCC(C(=O)NCc2ccco2)C1` (stereo not given), for which the fold increase in Dox EC50 is 1.04 (inactive) and the EC50 came to 5.6 µM.
With `Cc1cccc(C2CC(c3ccccc3)Nc3ncnn32)c1` (stereo not given), the fold increase in Dox EC50 was 0.46 (inactive) and the EC50 was determined as 2.46 µM.
As to `COc1ccc2cc(-c3cc(C(=O)O)c4ccccc4n3)ccc2c1`, the fold increase in Dox EC50 is 1.07 (inactive) and the half-maximal effective concentration (EC50) was 5.75 µM.
As for `Cc1ccc(C(C)C)c(OCc2nc(-c3nonc3N)no2)c1`, the fold increase in Dox EC50 is 1.51 and the EC50 was 8.18 µM.
`Cc1cc(/C=C2\SC(=S)NC2=O)c(C)n1C`: the fold increase in Dox EC50 is 1.44 (inactive) and the EC50 came to 7.78 µM.
Taken in the same sequence, the figures for `Cc1ccc(OCCN2CCN(C(=O)CCC(=O)Nc3nnc(C)s3)CC2)cc1` were 1.53 and 8.28 µM.
For the compound `Cc1ccc(NC(=O)CSc2nnc(-c3cccs3)n2Cc2ccco2)cc1`, the fold increase in Dox EC50 is 0.78 (inactive) and the half-maximal effective concentration (EC50) was found to be 4.24 µM.
`CC(C)Cn1c2c(c(O)c(C(=O)Nc3ccc(F)cc3)c1=O)CCCC2`: the fold increase in Dox EC50 is 0.95 (inactive) and the EC50 was 5.15 µM.
For the compound `COc1cc(C2NC(=O)NC(C)=C2C(=O)OCc2ccc(C)cc2)cc(OC)c1O` (stereo not given), the fold increase in Dox EC50 is 0.68 (inactive) and the EC50 amounted to 3.65 µM.
In the case of `COc1ccc(Nc2nnc(Cc3ccc(Cl)cc3)c(=O)[nH]2)c(OC)c1`, the fold increase in Dox EC50 is 0.91 (inactive) and the EC50 was 4.93 µM.
`O=C(NC1CCCCCC1)c1nnc(Cc2ccc(Cl)cc2)o1`: the fold increase in Dox EC50 was 0.78 (inactive) and the concentration giving a half-maximal response (EC50) came out at 4.21 µM.
Taken in the same sequence, the figures for `COc1cccc(-c2csc(NC(=O)Oc3ccccc3)n2)c1` were 1.52 and 8.23 µM.
With `COc1cccc(/C=N/NC(=O)C(=O)N2CCCC2)c1O`, the fold increase in Dox EC50 was 0.67 (inactive) and the EC50 was 3.6 µM.
In the case of `CC(C)(C)c1ccc(OCC(O)CSc2ncn[nH]2)cc1` (stereo not given), the fold increase in Dox EC50 is 0.88 (inactive) and the EC50 was found to be 4.74 µM.
In the case of `Cc1noc(/C=C/N(C)C)c1S(=O)(=O)N1CCCC(C(=O)NC2CCCCC2C)C1` (stereo not given), the fold increase in Dox EC50 is 0.92 (inactive) and the EC50 turned out to be 4.98 µM.
For `C/C(=N/NC(=S)Nc1ccccc1)c1ccc2c(c1)OCO2` the same measures were 1.01 (inactive) and 5.46 µM.
On to `COc1ccc(/C=N/Nc2cc(OC)ncn2)cc1`, for which the fold increase in Dox EC50 is 0.57 (inactive) and the EC50 worked out at 3.1 µM.
As for `FC(F)(F)c1cccc(CNc2ncccc2-c2nc3cc(Cl)ccc3o2)c1`, the fold increase in Dox EC50 is 0.93 (inactive) and the concentration giving a half-maximal response (EC50) worked out at 5.03 µM.

The values above are taken from PubChem BioAssay AID844 (SRMLSC, 2007).
